Laboratory results taken from ChEMBL document CHEMBL5113403, “Design, synthesis, and biological evaluation of novel pyrazolo [3,4-d]pyrimidine derivatives as potent PLK4 inhibitors for the treatment of TRIM37-amplified breast cancer” (Eur J Med Chem, 2022).

Assays:
[1] = target: Serine/threonine-protein kinase PAK 4 (Homo sapiens, UniProt O96013); test: Inhibition of PAK4 (unknown origin) incubated for 60 mins by time-resolved HTRF assay
MCF7 [2] = test: Antiproliferative activity against human MCF7 cells assessed as cell growth inhibition incubated for 5 days by MTT assay; type: functional, cell-based; conditions: MCF7, 120 h
MDA-MB-231 = test: Antiproliferative activity against human MDA-MB-231 cells assessed as cell growth inhibition incubated for 5 days by MTT assay; type: functional, cell-based; conditions: MDA-MB-231, 120 h
[3] = Plasma stability in human assessed as compound remaining at 100 uM measured after 30 mins by LC-MS/MS analysis relative to control; type: ADME, cell-free; conditions: read-out: Stability
[4] = Plasma stability in human assessed as compound remaining at 100 uM measured after 120 mins by LC-MS/MS analysis relative to control; type: ADME, cell-free; conditions: read-out: Stability
[5] = Plasma stability in human assessed as half-life at 100 uM measured upto 120 mins by LC-MS/MS analysis relative to control; type: ADME, cell-free
CYP2C9 = CYP2C9 (Homo sapiens, UniProt P11712); test: Inhibition of CYP2C9 in human liver microsomes at 10 uM preincubated for 10 mins followed by addition of NADPH-regenerating system and measured after 15 mins by LC-MS/MS analysis relative to control; type: ADME, Microsome; conditions: time 25 min
CYP2C19 = CYP2C19 (Homo sapiens, UniProt P33261); test: Inhibition of CYP2C19 in human liver microsomes at 10 uM preincubated for 10 mins followed by addition of NADPH-regenerating system and measured after 15 mins by LC-MS/MS analysis relative to control; type: ADME, Microsome; conditions: time 25 min
CYP2D6 = CYP2D6 (Homo sapiens, UniProt P10635); test: Inhibition of CYP2D6 in human liver microsomes at 10 uM preincubated for 10 mins followed by addition of NADPH-regenerating system and measured after 15 mins by LC-MS/MS analysis relative to control; type: ADME, Microsome; conditions: time 25 min
[6] = Tmax in Sprague-Dawley rat at 10 mg/kg, po by LC-MS/MS analysis; type: ADME, organism-based; conditions: in vivo
[7] = AUClast in Sprague-Dawley rat at 10 mg/kg, po by LC-MS/MS analysis; type: ADME, organism-based; design: time 0 - last, dose 10 mg/kg, route po; conditions: in vivo
[8] = Oral bioavailability in Sprague-Dawley rat at 10 mg/kg by LC-MS/MS analysis; type: ADME, organism-based; conditions: in vivo
[9] = Half-life in Sprague-Dawley rat at 3 mg/kg, iv by LC-MS/MS analysis; type: ADME, organism-based; conditions: in vivo
[10] = AUClast in Sprague-Dawley rat at 3 mg/kg, iv by LC-MS/MS analysis; type: ADME, organism-based; design: time 0 - last, dose 3 mg/kg, route iv; conditions: in vivo
[11] = AUCinfinity in Sprague-Dawley rat at 3 mg/kg, iv by LC-MS/MS analysis; type: ADME, organism-based; design: time infinity, dose 3 mg/kg, route iv; conditions: in vivo
[12] = MRT in Sprague-Dawley rat at 3 mg/kg, iv by LC-MS/MS analysis; type: ADME, organism-based; conditions: in vivo
MCF7 [13] = test: Induction of apoptosis in human MCF7 cells assessed as early apoptotic cells at 2.5 uM incubated for 48 hrs by Annexin-V-FITC/PI staining based flow cytometric analysis (reference value: 2.83 %); type: functional
MCF7 [14] = test: Induction of apoptosis in human MCF7 cells assessed as late apoptotic cells at 2.5 uM incubated for 48 hrs by Annexin-V-FITC/PI staining based flow cytometric analysis (reference value: 0.019 %); type: functional
MCF7 [15] = test: Induction of apoptosis in human MCF7 cells assessed as viable cells at 1 uM incubated for 48 hrs by Annexin-V-FITC/PI staining based flow cytometric analysis (reference value: 97 %); type: functional
MCF7 [16] = test: Induction of apoptosis in human MCF7 cells assessed as early apoptotic cells at 1 uM incubated for 48 hrs by Annexin-V-FITC/PI staining based flow cytometric analysis (reference value: 2.83 %); type: functional
MCF7 [17] = test: Induction of apoptosis in human MCF7 cells assessed as early apoptotic cells at 0.50 uM incubated for 48 hrs by Annexin-V-FITC/PI staining based flow cytometric analysis (reference value: 2.83 %); type: functional; conditions: dose 0.5 µM
MCF7 [18] = test: Induction of apoptosis in human MCF7 cells assessed as viable cells at 0.25 uM incubated for 48 hrs by Annexin-V-FITC/PI staining based flow cytometric analysis (reference value: 97 %); type: functional
MCF7 [19] = test: Induction of apoptosis in human MCF7 cells assessed as late apoptotic cells at 0.25 uM incubated for 48 hrs by Annexin-V-FITC/PI staining based flow cytometric analysis (reference value: 0.019 %); type: functional
MCF7 [20] = test: Induction of apoptosis in human MCF7 cells assessed as necrotic cells at 0.25 uM incubated for 48 hrs by Annexin-V-FITC/PI staining based flow cytometric analysis (reference value: 0.18 %); type: functional
MCF7 [21] = test: Induction of apoptosis in human MCF7 cells assessed as early apoptotic cells at 0.10 uM incubated for 48 hrs by Annexin-V-FITC/PI staining based flow cytometric analysis (reference value: 2.83 %); type: functional; conditions: dose 0.1 µM
MCF7 [22] = test: Induction of apoptosis in human MCF7 cells assessed as late apoptotic cells at 0.10 uM incubated for 48 hrs by Annexin-V-FITC/PI staining based flow cytometric analysis (reference value: 0.019 %); type: functional; conditions: dose 0.1 µM
MCF7 [23] = test: Induction of apoptosis in human MCF7 cells assessed as total apoptotic cells at 0.10 uM incubated for 48 hrs by Annexin-V-FITC/PI staining based flow cytometric analysis relative to control; type: functional; conditions: dose 0.1 µM
MCF7 [24] = test: Induction of apoptosis in human MCF7 cells assessed as total apoptotic cells at 0.25 uM incubated for 48 hrs by Annexin-V-FITC/PI staining based flow cytometric analysis relative to control; type: functional
MCF7 [25] = test: Induction of apoptosis in human MCF7 cells assessed as total apoptotic cells at 2.50 uM incubated for 48 hrs by Annexin-V-FITC/PI staining based flow cytometric analysis relative to control; type: functional; conditions: dose 2.5 µM
MCF7 [26] = test: Induction of cell cycle arrest in human MCF7 cells assessed as G2 phase cells at 2.5 uM measured after 48 hrs by flow cytometry analysis (reference value: 31.8 %); type: functional
MCF7 [27] = test: Induction of cell cycle arrest in human MCF7 cells assessed as greater G1 phase cells at 1 uM measured after 48 hrs by flow cytometry analysis (reference value: 0.78 %); type: functional
MCF7 [28] = test: Induction of cell cycle arrest in human MCF7 cells assessed as G2 phase cells at 0.50 uM measured after 48 hrs by flow cytometry analysis (reference value: 31.8 %); type: functional; conditions: dose 0.5 µM
MCF7 [29] = test: Induction of cell cycle arrest in human MCF7 cells assessed as S phase cells at 0.25 uM measured after 48 hrs by flow cytometry analysis (reference value: 9.31 %); type: functional
MCF7 [30] = test: Induction of cell cycle arrest in human MCF7 cells assessed as G2 phase cells at 0.25 uM measured after 48 hrs by flow cytometry analysis (reference value: 31.8 %); type: functional
MCF7 [31] = test: Induction of cell cycle arrest in human MCF7 cells assessed as greater G1 phase cells at 0.25 uM measured after 48 hrs by flow cytometry analysis (reference value: 0.78 %); type: functional
MCF7 [32] = test: Induction of cell cycle arrest in human MCF7 cells assessed as greater G1 phase cells at 0.10 uM measured after 48 hrs by flow cytometry analysis (reference value: 0.78 %); type: functional; conditions: dose 0.1 µM

CYP2D6, sequence (P10635 whole entry): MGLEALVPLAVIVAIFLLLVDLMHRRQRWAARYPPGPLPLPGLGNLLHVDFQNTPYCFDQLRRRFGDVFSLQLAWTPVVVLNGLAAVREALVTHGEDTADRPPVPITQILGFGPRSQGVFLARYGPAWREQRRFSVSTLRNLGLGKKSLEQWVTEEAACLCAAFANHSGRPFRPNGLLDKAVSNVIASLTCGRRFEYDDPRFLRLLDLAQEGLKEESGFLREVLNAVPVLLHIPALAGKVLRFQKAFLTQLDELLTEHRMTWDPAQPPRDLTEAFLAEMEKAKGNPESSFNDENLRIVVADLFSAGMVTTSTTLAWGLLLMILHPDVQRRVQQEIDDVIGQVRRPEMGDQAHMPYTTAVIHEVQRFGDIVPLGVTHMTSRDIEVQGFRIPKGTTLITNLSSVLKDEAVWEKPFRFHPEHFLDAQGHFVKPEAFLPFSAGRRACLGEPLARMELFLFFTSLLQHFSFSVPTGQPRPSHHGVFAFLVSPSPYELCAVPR
CYP2C9, sequence (P11712 whole entry): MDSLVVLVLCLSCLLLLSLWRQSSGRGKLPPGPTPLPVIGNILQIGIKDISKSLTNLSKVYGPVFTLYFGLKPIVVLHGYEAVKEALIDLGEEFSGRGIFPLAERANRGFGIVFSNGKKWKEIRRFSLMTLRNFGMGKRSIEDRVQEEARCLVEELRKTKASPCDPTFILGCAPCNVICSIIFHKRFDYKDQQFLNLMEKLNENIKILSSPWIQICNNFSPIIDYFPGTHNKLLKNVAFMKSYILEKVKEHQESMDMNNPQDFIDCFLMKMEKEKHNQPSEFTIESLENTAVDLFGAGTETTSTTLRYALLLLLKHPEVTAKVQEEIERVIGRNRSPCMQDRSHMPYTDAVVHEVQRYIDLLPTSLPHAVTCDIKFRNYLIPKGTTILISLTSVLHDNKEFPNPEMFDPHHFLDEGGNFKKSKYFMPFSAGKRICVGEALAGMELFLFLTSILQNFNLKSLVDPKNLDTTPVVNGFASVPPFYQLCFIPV
CYP2C19, sequence (P33261 whole entry): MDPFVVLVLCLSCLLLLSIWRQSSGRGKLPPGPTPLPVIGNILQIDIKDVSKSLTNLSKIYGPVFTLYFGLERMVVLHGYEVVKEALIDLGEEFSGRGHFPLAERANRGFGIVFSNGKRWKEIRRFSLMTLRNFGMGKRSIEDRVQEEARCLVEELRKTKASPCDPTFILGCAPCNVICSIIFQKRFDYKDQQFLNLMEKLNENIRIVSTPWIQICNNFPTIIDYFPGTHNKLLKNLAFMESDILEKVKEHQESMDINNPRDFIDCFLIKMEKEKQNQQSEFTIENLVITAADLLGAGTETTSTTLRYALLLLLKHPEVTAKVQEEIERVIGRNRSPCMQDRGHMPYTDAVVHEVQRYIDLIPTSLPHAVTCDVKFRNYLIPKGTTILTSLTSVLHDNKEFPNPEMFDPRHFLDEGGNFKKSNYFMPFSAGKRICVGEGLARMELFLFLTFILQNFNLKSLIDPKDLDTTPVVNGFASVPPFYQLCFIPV
Serine/threonine-protein kinase PAK 4, sequence (O96013 whole entry): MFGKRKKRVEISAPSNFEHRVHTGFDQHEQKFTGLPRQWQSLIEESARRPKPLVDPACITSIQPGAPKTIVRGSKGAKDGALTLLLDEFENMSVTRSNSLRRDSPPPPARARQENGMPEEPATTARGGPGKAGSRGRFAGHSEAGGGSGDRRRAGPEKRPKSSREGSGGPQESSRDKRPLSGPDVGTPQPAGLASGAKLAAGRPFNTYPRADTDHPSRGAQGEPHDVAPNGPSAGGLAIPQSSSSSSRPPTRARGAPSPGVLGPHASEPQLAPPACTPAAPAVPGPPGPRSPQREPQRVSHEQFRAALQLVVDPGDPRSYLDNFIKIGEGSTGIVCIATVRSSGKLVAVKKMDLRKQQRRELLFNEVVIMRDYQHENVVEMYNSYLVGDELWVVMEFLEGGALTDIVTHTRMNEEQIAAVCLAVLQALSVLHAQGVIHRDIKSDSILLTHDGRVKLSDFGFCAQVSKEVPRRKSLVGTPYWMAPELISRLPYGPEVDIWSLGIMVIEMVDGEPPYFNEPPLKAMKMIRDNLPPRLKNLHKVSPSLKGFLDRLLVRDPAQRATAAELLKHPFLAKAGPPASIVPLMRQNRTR

`Cc1cc(Nc2nc(NCc3ccc(F)cc3F)nc3c2cnn3C2CCOCC2)n[nH]1` showed an IC50 [1] of 1750 nM, an IC50 (MCF7 [2]) of 360 nM and an IC50 (MDA-MB-231) of 2880 nM. For the same compound, the remaining at 0.5 h, 100 µM [3] was 96.6%, the remaining at 2 h, 100 µM [4] was 107% and the half-life at 100 µM [5] was > 4.82 h. It also gave an inhibition at 0.25 h, 10 µM (CYP2C9) of 25.4%, an inhibition at 0.25 h, 10 µM (CYP2C19) of 32.9% and an inhibition at 0.25 h, 10 µM (CYP2D6) of 13.4%. It also gave a Tmax [6] of 1.33 h, an AUC(0-t) [7] of 286 ng·h/mL and a bioavailability [8] of 8.03%. The half-life [9] was 1.05 h, the AUC(0-t) [10] was 1070 ng·h/mL and the AUC(0-inf) [11] was 1070 ng·h/mL. It also gave an MRT [12] of 1.07 h, an Activity (MCF7 [13]) of 68.5% and an Activity (MCF7 [14]) of 10.8%. The Activity (MCF7 [15]) was 27.5%, the Activity (MCF7 [16]) was 65% and the Activity (MCF7 [17]) was 59.7%. The Activity (MCF7 [18]) was 67.1%, the Activity (MCF7 [19]) was 6.18% and the Activity (MCF7 [20]) was 1.97%. It also gave an Activity (MCF7 [21]) of 19.3%, an Activity (MCF7 [22]) of 4.74% and an Activity (MCF7 [23]) of 24.04%. For the same compound, the Activity (MCF7 [24]) was 30.98%, the Activity (MCF7 [25]) was 79.3% and the Activity (MCF7 [26]) was 67.6%. It also gave an Activity (MCF7 [27]) of 0.61%, an Activity (MCF7 [28]) of 44.6% and an Activity (MCF7 [29]) of 10.67%. The Activity (MCF7 [30]) was 44.4%, the Activity (MCF7 [31]) was 0.68% and the Activity (MCF7 [32]) was 0.62%.
